# Test results from US6617350B2, “Inhibitors of aspartyl protease” (priority 1999, dated 2003).
# Where two headings read alike, the source gives them in different places.
# How the values were obtained:
# [1] = target: HIV-1 protease (Human immunodeficiency virus type 1 group M subtype B, UniProt P04585); assay: biochemical
# [2] = system: HIV-1 (strain IIIB); assay: microbe, parasite or virus in culture; type: cell-based; settings: Human immunodeficiency virus 1, IIIB, MT4, Table 12; anti-viral potency in MT-4 cells; read-out: IC50
# [3] = Table 12, HIV-1 protease, read-out: Ki
SMILES,"Ki [1, 3]",IC50 [2],Ki [1]
"COc1ccc(S(=O)(=O)N(CC(O)[C@H](Cc2ccccc2)NC(=O)OC2COC3OCCC23)CC(C)(C)CCOC(N)=O)cc1 (stereo partly drawn) [Compound 235, (3R,3aS,6aR)-Hexahydrofuro[2,3-b]furan-3-yl N-((1S,2R)-1-benzyl-3-(4-carbamoyloxy-2,2-dimethylbutyl)[(4-methoxyphenyl)sulfonyl]amino-2-hydroxypropyl)carbamate]",< 1 nM,≤ 100 nM,–
"COc1ccc(S(=O)(=O)N(CC(O)C(Cc2ccccc2)NC(=O)OC2COC3OCCC23)CC(C)(C)CCNC(=O)N2CCOCC2)cc1 [Compound 236, (3R,3aS,6aR)hexahydrofuro[2,3-b]furan-3-yl N-((1S,2R)-1-benzyl-3-2,2-dimethyl-4-[(morpholinocarbonyl)amino]butyl[(4-methoxyphenyl)sulfonyl]amino-2-hydroxypropyl)carbamate and (3S,3aR,6aS)hexahydrofuro[2,3-b]furan-3-yl N-((1S,2R)-1-benzyl-3-2,2-dimethyl-4-[(morpholinocarbonyl)amino]butyl[(4-methoxyphenyl)sulfonyl]amino-2-hydroxypropyl)carbamate]",< 1 nM,≤ 100 nM,–
"COc1ccc(S(=O)(=O)N(CC(O)C(Cc2ccccc2)NC(=O)OC2COC3OCCC23)CC(C)(C)CCCNC(=O)N2CCOCC2)cc1 [Compound 237, (3R,3aS,6aR)hexahydrofuro[2,3-b]furan-3-yl N-((1S,2R)-1-benzyl-3-2,2-dimethyl-5-[(morpholinocarbonyl)amino]pentyl[(4-methoxyphenyl)sulfonyl]amino-2-hydroxypropyl)carbamate and 3S,3aR,6aS)hexahydrofuro[2,3-b]furan-3-yl N-((1S,2R)-1-benzyl-3-2,2-dimethyl-5-[(morpholinocarbonyl)amino]pentyl[(4-methoxyphenyl)sulfonyl]amino-2-hydroxypropyl)carbamate]",< 1 nM,≤ 100 nM,–
"COc1ccc(S(=O)(=O)N(CC(O)C(Cc2ccccc2)NC(=O)OC2COC3OCCC23)CC(C)(C)CCN(C)C)cc1 [Compound 238, (3R,3aS,6aR)hexahydrofuro[2,3-b]furan-3-yl N-((1S,2R)-1-benzyl-3-[4-(dimethylamino)-2,2-dimethylbutyl][(4-methoxyphenyl)sulfonyl]amino-2-hydroxypropyl)carbamate and (3S,3aR,6aS)hexahydrofuro[2,3-b]furan-3-yl N-((1S,2R)-1-benzyl-3-[4-(dimethylamino)-2,2-dimethylbutyl][(4-methoxyphenyl)sulfonyl]amino-2-hydroxypropyl)carbamate]]",< 1 nM,100 to 500 nM,–
"CC(=O)CCC(C)(C)CN(CC(O)[C@H](Cc1ccccc1)NC(=O)OC1COC2OCCC12)S(=O)(=O)c1ccc2c(c1)OCO2 (stereo partly drawn) [Compound 240, (3R,3aS,6aR)-Hexahydrofuro[2,3-b]furan-3-yl N-((1S,2R)-1-benzyl-3-(2,2-dimethyl-5-oxohexyl)[(3,4-methylenedioxyphenyl)sulfonyl]amino-2-hydroxypropyl)carbamate]",< 1 nM,≤ 100 nM,–
"CNc1cccc(S(=O)(=O)N(C[C@@H](O)[C@H](Cc2ccccc2)NC(=O)O[C@H]2CO[C@H]3OCC[C@H]32)CC(C)(C)CCCCN)c1 [Compound 241, (3R,3aS,6aR)hexahydrofuro[2,3-b]furan-3-yl N-[(1S,2R)-3-((6-amino-2,2-dimethylhexyl)[3-(methylamino)phenyl]sulfonylamino)-1-benzyl-2-hydroxypropyl]carbamate]",< 1 nM,100 to 500 nM,–
"COc1ccc(S(=O)(=O)N(CC(O)C(Cc2ccccc2)NC(=O)OC2COC3OCCC23)CC(C)(C)CCNC(=O)OC(C)C)cc1 [Compound 242, (3R,3aS,6aR)hexahydrofuro[2,3-b]furan-3-yl N-((1S,2R)-1-benzyl-2-hydroxy-3-4-[(isopropoxycarbonyl)amino]-2,2-dimethylbutyl[(4-methoxyphenyl)sulfonyl]aminopropyl)carbamate and (3S,3aR,6aS)hexahydrofuro[2,3-b]furan-3-yl N-((1S,2R)-1-benzyl-2-hydroxy-3-4-[(isopropoxycarbonyl)amino]-2,2-dimethylbutyl[(4-methoxyphenyl)sulfonyl]aminopropyl)carbamate]",–,≤ 100 nM,< 1 nM
"COc1ccc(S(=O)(=O)N(CC(O)C(Cc2ccccc2)NC(=O)OC2COC3OCCC23)CC(C)(C)CCCNC(=O)OC(C)C)cc1 [Compound 243, (3R,3aS,6aR)hexahydrofuro[2,3-b]furan-3-yl N-((1S,2R)-1-benzyl-2-hydroxy-3-5-[(isopropoxycarbonyl)amino]-2,2-dimethylpentyl[(4-methoxyphenyl)sulfonyl]aminopropyl)carbamate and (3S,3aR,6aS)hexahydrofuro[2,3-b]furan-3-yl N-((1S,2R)-1-benzyl-2-hydroxy-3-5-[(isopropoxycarbonyl)amino]-2,2-dimethylpentyl[(4-methoxyphenyl)sulfonyl]aminopropyl)carbamate]",–,≤ 100 nM,< 1 nM
"CC(C)(CCCCN)CN(CC(O)C(Cc1ccccc1)NC(=O)OC1COC2OCCC12)S(=O)(=O)c1ccc2c(c1)OCO2 [Compound 244, (3R,3aS,6aR)hexahydrofuro[2,3-b]furan-3-yl N-(1S,2R)-3-[(6-amino-2,2-dimethylhexyl)(1,3-benzodioxol-5-ylsulfonyl)amino]-1-benzyl-2-hydroxypropylcarbamate]",< 1 nM,100 to 500 nM,–
"CC(C)(CCCCN)CN(CC(O)C(Cc1ccccc1)NC(=O)OC1COC2OCCC12)S(=O)(=O)c1ccc2c(c1)OCCO2 [Compound 245, (3R,3aS,6aR)hexahydrofuro[2,3-b]furan-3-yl N-(1S,2R)-3-[(6-amino-2,2-dimethylhexyl)(2,3-dihydro-1,4-benzodioxin-6-ylsulfonyl)amino]-1-benzyl-2-hydroxypropylcarbamate]",< 1 nM,100 to 500 nM,–
"CNc1cccc(S(=O)(=O)N(C[C@@H](O)[C@H](Cc2ccccc2)NC(=O)O[C@H]2CO[C@H]3OCC[C@H]32)CC(C)(C)CCCCNC(=O)OC)c1 [Compound 246, (3R,3aS,6aR)hexahydrofuro[2,3-b]furan-3-yl N-[(1S,2R)-1-benzyl-2-hydroxy-3-(6-[(methoxycarbonyl)amino]-2,2-dimethylhexyl[3-(methylamino)phenyl]sulfonylamino)propyl]carbamate]",< 1 nM,≤ 100 nM,–
"CNc1cccc(S(=O)(=O)N(C[C@@H](O)[C@H](Cc2ccccc2)NC(=O)O[C@H]2CO[C@H]3OCC[C@H]32)CC(C)(C)CCCCNC(=O)N(C)C)c1 [Compound 247, (3R,3aS,6aR)hexahydrofuro[2,3-b]furan-3-yl N-[(1S,2R)-1-benzyl-3-((6-[(dimethylamino)carbonyl]amino-2,2-dimethylhexyl)[3-(methylamino)phenyl]sulfonylamino)-2-hydroxypropyl]carbamate]",< 1 nM,≤ 100 nM,–
"COC(=O)NCCCCC(C)(C)CN(C[C@@H](O)[C@H](Cc1ccccc1)NC(=O)O[C@H]1CO[C@H]2OCC[C@H]21)S(=O)(=O)c1ccc2c(c1)OCO2 [Compound 248, (3R,3aS, 6aR)hexahydrofuro[2,3-b]furan-3-yl N-[(1S,2R)-3-((1,3-benzodioxol-5-ylsulfonyl)6-[(methoxycarbonyl)amino]-2,2-dimethylhexylamino)-1-benzyl-2-hydroxypropyl]carbamate]",< 1 nM,≤ 100 nM,–
"CN(C)C(=O)NCCCCC(C)(C)CN(CC(O)C(Cc1ccccc1)NC(=O)OC1COC2OCCC12)S(=O)(=O)c1ccc2c(c1)OCO2 [Compound 249, (3R,3aS,6aR)hexahydrofuro[2,3-b]furan-3-yl N-(1S,2R)-3-[(1,3-benzodioxol-5-ylsulfonyl)(6-[(dimethylamino)carbonyl]amino-2,2-dimethylhexyl)amino]-1-benzyl-2-hydroxypropylcarbamate]",< 1 nM,≤ 100 nM,–
"COC(=O)NCCCCC(C)(C)CN(C[C@@H](O)[C@H](Cc1ccccc1)NC(=O)O[C@H]1CO[C@H]2OCC[C@H]21)S(=O)(=O)c1ccc2c(c1)OCCO2 [Compound 250, (3R,3aS,6aR)hexahydrofuro[2,3-b]furan-3-yl N-[(1S,2R)-1-benzyl-3-((2,3-dihydro-1,4-benzodioxin-6-ylsulfonyl)6-[(methoxycarbonyl)amino]-2,2-dimethylhexylamino)-2-hydroxypropyl]carbamate]",< 1 nM,≤ 100 nM,–
"CN(C)C(=O)NCCCCC(C)(C)CN(CC(O)C(Cc1ccccc1)NC(=O)OC1COC2OCCC12)S(=O)(=O)c1ccc2c(c1)OCCO2 [Compound 251, (3R,3aS,6aR)hexahydrofuro[2,3-b]furan-3-yl N-(1S,2R)-1-benzyl-3-[(2,3-dihydro-1,4-benzodioxin-6-ylsulfonyl)(6-[(dimethylamino)carbonyl]amino-2,2-dimethylhexyl)amino]-2-hydroxypropylcarbamate]",< 1 nM,≤ 100 nM,–
"CC(=O)CCC(C)(C)CN(CC(O)[C@H](Cc1ccccc1)NC(=O)OC1COC2OCCC12)S(=O)(=O)c1ccc2c(c1)OCCO2 (stereo partly drawn) [Compound 252, (3R,3aS,6aR)-Hexahydrofuro[2,3-b]furan-3-yl N-((1S,2R)-3-(1,4-benzodioxan-6-sulfonyl)(2,2-dimethyl-5-oxohexyl)amino-1-benzyl-2-hydroxypropyl)carbamate]",< 1 nM,≤ 100 nM,–
CC(=O)CCC(C)(C)CN(CC(O)[C@H](Cc1ccccc1)NC(=O)OC1COC2OCCC12)S(=O)(=O)c1cccc(N)c1 (stereo partly shown) [Compound 253],< 1 nM,≤ 100 nM,–
CC(=O)CCC(C)(C)CN(CC(O)[C@H](Cc1ccccc1)NC(=O)OC1COC2OCCC12)S(=O)(=O)c1cccc(N(C)C)c1 (stereo partly shown) [Compound 254],< 1 nM,≤ 100 nM,–
"CC(C)(CCCCNS(C)(=O)=O)CN(C[C@@H](O)[C@H](Cc1ccccc1)NC(=O)O[C@H]1CO[C@H]2OCC[C@H]21)S(=O)(=O)c1ccc2c(c1)OCO2 [Compound 255, (3R,3aS,6aR)hexahydrofuro[2,3-b]furan-3-yl N-[(1S,2R)-3-((1,3-benzodioxol-5-ylsulfonyl)2,2-dimethyl-6-[(methylsulfonyl)amino]hexylamino)-1-benzyl-2-hydroxypropyl]carbamate]",< 1 nM,≤ 100 nM,–
